The values that follow come from PubChem BioAssay AID248 (DTP/NCI, 2004).

Structures are written as SMILES. Values joined by “and” are separate entries in the source; they are usually repeats but may differ in a detail not shown here. Identical values can stand only once. Toxic doses and inconclusive results are not listed.

In this experiment the test system is L1210 leukemia ip in BDF1 mice, survival T/C. Kind of experiment: NCI In Vivo Anticancer Drug Screen. Data for tumor model L1210 Leukemia (intraperitoneal) in B6D2F1 (BDF1) mice. To be noted: endpoint: mean survival time, higher = longer survival. The method, boiled down:
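Ratio derived from survival: compound-dosed mice over vehicle-dosed mice, all bearing a transplantable tumor.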

Setting [1] is: dose: 50.0 mg/kg/injection, schedule: Q01DX009 (ip), vehicle: Klucel (hydroxypropylcellulose) (HPC).
Where [2] appears, read: dose: 100.0 mg/kg/injection, schedule: Q01DX009 (ip), vehicle: Klucel (hydroxypropylcellulose) (HPC).
[3] abbreviates: dose: 100.0 mg/kg/injection, schedule: Q01DX009 (ip), vehicle: saline.
Setting [4] is: dose: 100.0 mg/kg/injection, schedule: Q04DX002 (ip), vehicle: saline with Tween-80.
Setting [5] is: dose: 100.0 mg/kg/injection, schedule: Q04DX003 (ip), vehicle: saline with Tween-80.
The mark [6] stands for this setting: dose: 200.0 mg/kg/injection, schedule: Q04DX003 (ip), vehicle: saline with Tween-80.
The mark [7] stands for this setting: dose: 400.0 mg/kg/injection, schedule: Q04DX003 (ip), vehicle: saline with Tween-80.
Where [8] appears, read: dose: 25.0 mg/kg/injection, schedule: Q01DX009 (ip), vehicle: saline with Tween-80.
[9] abbreviates: dose: 200.0 mg/kg/injection, schedule: Q01DX009 (ip), vehicle: Klucel (hydroxypropylcellulose) (HPC).
Where [10] appears, read: dose: 100.0 mg/kg/injection, schedule: Q04DX002 (ip), vehicle: Klucel (hydroxypropylcellulose) (HPC).
Where [11] appears, read: dose: 200.0 mg/kg/injection, schedule: Q04DX002 (ip), vehicle: Klucel (hydroxypropylcellulose) (HPC).
Where [12] appears, read: dose: 100.0 mg/kg/injection, schedule: Q01DX001 (ip), vehicle: Klucel (hydroxypropylcellulose) (HPC).
The mark [13] stands for this setting: dose: 100.0 mg/kg/injection, schedule: Q04DX003 (ip), vehicle: Klucel (hydroxypropylcellulose) (HPC).
Setting [14] is: dose: 200.0 mg/kg/injection, schedule: Q01DX001 (ip), vehicle: Klucel (hydroxypropylcellulose) (HPC).
[15] abbreviates: dose: 200.0 mg/kg/injection, schedule: Q04DX003 (ip), vehicle: Klucel (hydroxypropylcellulose) (HPC).
The mark [16] stands for this setting: dose: 400.0 mg/kg/injection, schedule: Q01DX001 (ip), vehicle: Klucel (hydroxypropylcellulose) (HPC).
Where [17] appears, read: dose: 25.0 mg/kg/injection, schedule: Q04DX002 (ip), vehicle: saline with Tween-80.
The mark [18] stands for this setting: dose: 50.0 mg/kg/injection, schedule: Q04DX002 (ip), vehicle: saline with Tween-80.
Setting [19] is: dose: 100.0 mg/kg/injection, schedule: Q04DX003 (ip), vehicle: saline.
[20] abbreviates: dose: 200.0 mg/kg/injection, schedule: Q04DX003 (ip), vehicle: saline.
Where [21] appears, read: dose: 400.0 mg/kg/injection, schedule: Q01DX009 (ip), vehicle: saline.
Where [22] appears, read: dose: 400.0 mg/kg/injection, schedule: Q04DX003 (ip), vehicle: saline.

Take `Cc1c(CNc2ccc(Cl)c(C(=O)NC(CC(=O)O)C(=O)O)c2)ccc2nc(N)nc(N)c12` (centres undefined): the T/C is 110 % of control (dose: 1.5 mg/kg/injection, schedule: Q01DX009 (ip), vehicle: Klucel (hydroxypropylcellulose) (HPC)); 115 % of control (dose: 3.0 mg/kg/injection, schedule: Q01DX009 (ip), vehicle: Klucel (hydroxypropylcellulose) (HPC)); 120 % of control (dose: 3.13 mg/kg/injection, schedule: Q01DX009 (ip), vehicle: Klucel (hydroxypropylcellulose) (HPC)); 110 % of control and 92 % of control (dose: 6.0 mg/kg/injection, schedule: Q01DX009 (ip), vehicle: Klucel (hydroxypropylcellulose) (HPC)); 160 % of control (dose: 12.5 mg/kg/injection, schedule: Q01DX009 (ip), vehicle: Klucel (hydroxypropylcellulose) (HPC)); 168 % of control under setting [1]. In addition, the T/C reads like this: under setting [2], 97 % of control and 100 % of control; under setting [3], 162 % of control; (dose: 267.0 mg/kg/injection, schedule: Q01DX001 (ip), vehicle: saline) 122 % of control.

In the case of `CC1=CC(C(=O)O)P(C)(=O)C1` (centres undefined), the T/C reads like this: under setting [4], 92 % of control; (dose: 400.0 mg/kg/injection, schedule: Q04DX002 (ip), vehicle: saline with Tween-80) 88 % of control.

Take `O/C(=C\C(=S)S)c1ccc(Cl)cc1`: the T/C (dose: 0.06 mg/kg/injection, schedule: Q01DX009 (ip), vehicle: saline with Tween-80) was 103 % of control; the T/C (dose: 0.12 mg/kg/injection, schedule: Q01DX009 (ip), vehicle: saline with Tween-80) was 105 % of control; the T/C (dose: 0.25 mg/kg/injection, schedule: Q01DX009 (ip), vehicle: saline with Tween-80) is 98 % of control; the T/C (dose: 0.5 mg/kg/injection, schedule: Q01DX009 (ip), vehicle: saline with Tween-80) is 112 % of control and 120 % of control; the T/C (dose: 1.0 mg/kg/injection, schedule: Q01DX009 (ip), vehicle: saline with Tween-80) is 102 % of control and 107 % of control; the T/C (dose: 1.0 mg/kg/injection, schedule: Q04DX003 (ip), vehicle: saline with Tween-80) was 103 % of control. Moreover, the T/C by setting is: (dose: 2.0 mg/kg/injection, schedule: Q01DX009 (ip), vehicle: saline with Tween-80) 107 % of control; (dose: 2.0 mg/kg/injection, schedule: Q04DX003 (ip), vehicle: saline with Tween-80) 97 % of control; (dose: 4.0 mg/kg/injection, schedule: Q04DX003 (ip), vehicle: saline with Tween-80) 97 % of control; (dose: 8.0 mg/kg/injection, schedule: Q04DX003 (ip), vehicle: saline with Tween-80) 105 % of control.

Take `O=C(SCCNC(=O)N1CCCCC1)Sc1ccccc1`: the T/C is, setting by setting: under setting [5], 105 % of control; under setting [6], 101 % of control; under setting [7], 114 % of control.

As for `CCCCN(C)CC#N`, the T/C was 102 % of control (dose: 6.25 mg/kg/injection, schedule: Q01DX009 (ip), vehicle: saline with Tween-80); 96 % of control (dose: 12.5 mg/kg/injection, schedule: Q01DX009 (ip), vehicle: saline with Tween-80); 94 % of control (dose: 12.5 mg/kg/injection, schedule: Q04DX003 (ip), vehicle: saline with Tween-80); 104 % of control under setting [8]; 94 % of control (dose: 25.0 mg/kg/injection, schedule: Q04DX003 (ip), vehicle: saline with Tween-80).

With `Nc1nc(N)c(CCCCc2ccccc2)c(-c2ccccc2)n1`, the T/C under setting [1] is 98 % of control, the T/C under setting [2] is 95 % of control and the T/C under setting [9] is 95 % of control.

For the compound `CN(C)C(=N)CSS(=O)(=O)O`, the T/C under setting [10] was 90 % of control and the T/C under setting [11] is 101 % of control.

On to `NC(=O)c1ccccc1NC(=O)CCCOc1ccccc1`, for which the T/C is 100 % of control under setting [12]; 94 % of control under setting [13]; 93 % of control under setting [14]; 97 % of control under setting [15]; 96 % of control under setting [16].

For the compound `O=C(O)c1cc2ccc3ccccc3c2oc1=O`, the T/C is 87 % of control (dose: 100.0 mg/kg/injection, schedule: Q01DX001 (ip), vehicle: carboxymethylcellulose (CMC)); 92 % of control (dose: 200.0 mg/kg/injection, schedule: Q01DX001 (ip), vehicle: carboxymethylcellulose (CMC)); 92 % of control (dose: 400.0 mg/kg/injection, schedule: Q01DX001 (ip), vehicle: carboxymethylcellulose (CMC)).

For the compound `O=C1c2ccccc2-c2c3c(cc4ccnc1c24)OCO3`, the T/C runs as follows: under setting [12], 93 % of control; under setting [14], 96 % of control; under setting [16], 100 % of control.

Regarding `CCOC(=O)c1cnc(SC)nc1Nc1ccccc1[N+](=O)[O-]`, the T/C runs as follows: (dose: 25.0 mg/kg/injection, schedule: Q01DX001 (ip), vehicle: Klucel (hydroxypropylcellulose) (HPC)) 96 % of control; (dose: 50.0 mg/kg/injection, schedule: Q01DX001 (ip), vehicle: Klucel (hydroxypropylcellulose) (HPC)) 96 % of control; under setting [12], 100 % of control; under setting [2], 94 % of control; under setting [14], 88 % of control; under setting [9], 94 % of control. For the same compound, the T/C under setting [16] is 88 % of control and the T/C (dose: 400.0 mg/kg/injection, schedule: Q01DX009 (ip), vehicle: Klucel (hydroxypropylcellulose) (HPC)) was 89 % of control.

For the compound `O=C(OCc1ccccc1CN1CCOCC1)c1ccccc1`, the T/C was 98 % of control under setting [10]; 105 % of control under setting [11]; 96 % of control (dose: 400.0 mg/kg/injection, schedule: Q04DX002 (ip), vehicle: Klucel (hydroxypropylcellulose) (HPC)).

As for `Cc1ccc(C(C)(C#N)Nc2ccccc2)cc1` (centres undefined), the T/C was 88 % of control under setting [12]; 105 % of control under setting [13]; 91 % of control under setting [14]; 95 % of control under setting [15]; 92 % of control under setting [16]; 105 % of control (dose: 400.0 mg/kg/injection, schedule: Q04DX003 (ip), vehicle: Klucel (hydroxypropylcellulose) (HPC)).

For `COC(=O)C(CSCSC)NC(=O)/C=C/c1ccco1` (centres undefined), the T/C was 107 % of control under setting [8]; 107 % of control (dose: 50.0 mg/kg/injection, schedule: Q01DX009 (ip), vehicle: saline with Tween-80); 102 % of control and 91 % of control (dose: 100.0 mg/kg/injection, schedule: Q01DX009 (ip), vehicle: saline with Tween-80); 93 % of control under setting [5]; 101 % of control under setting [6]; 95 % of control under setting [7].

Consider `CCC(C)C(C=O)(CCN(C)CC)c1cccc2ccccc12` (centres undefined), for which the T/C by setting is: under setting [17], 91 % of control; under setting [18], 94 % of control.

For `CC(C)C(C)/C=C\C(C)C1CCC2C3=CCC4CC(O)CCC4(C)C3CCC21C` (centres undefined), the T/C by setting is: under setting [12], 97 % of control; under setting [14], 97 % of control; under setting [16], 97 % of control.

Regarding `CCCCS(=O)(=O)N1CCCCC1C` (centres undefined), the T/C is, setting by setting: under setting [17], 96 % of control; under setting [18], 96 % of control; under setting [4], 86 % of control.

`OC(c1ccc(OCc2ccccc2)cc1)c1nccc2ccccc12` (centres undefined): the T/C (dose: 100.0 mg/kg/injection, schedule: Q01DX001 (ip), vehicle: acetone) was 88 % of control.

Turning to `O=C(O)CNCc1cccc(Cl)c1`, the T/C runs as follows: (dose: 50.0 mg/kg/injection, schedule: Q01DX009 (ip), vehicle: saline) 94 % of control; under setting [3], 101 % of control; under setting [19], 95 % of control; under setting [20], 93 % of control; under setting [21], 101 % of control; under setting [22], 102 % of control.

In the case of `CC1(C)c2ccccc2C(=O)C1Cc1ccccc1` (centres undefined), the T/C reads like this: under setting [3], 102 % of control; under setting [19], 107 % of control; (dose: 200.0 mg/kg/injection, schedule: Q01DX009 (ip), vehicle: saline) 101 % of control; under setting [20], 104 % of control; under setting [21], 98 % of control; under setting [22], 96 % of control.
